Assay results taken from paper PMC8201677, “Calycosin-loaded nanoliposomes as potential nanoplatforms for treatment of diabetic nephropathy through regulation of mitochondrial respiratory function” (Journal of Nanobiotechnology, 2021).

Columns and labels:
[1] = In vitro drug release in dialysis media (simulated gastric, intestinal and physiological fluid); type: physicochemical
Experimental: The EE and DL of the prepared calycosin-loaded nanoliposomes were determined by the dialysis method described previously. Briefly, 700 μL of the prepared calycosin-loaded nanoliposomes solution was added into a dialysis bag (cutoff of 8000), followed by putting into 20 mL of dialysis medium (PBS, pH 7.4). The samples were then shacked (10 h), and centrifuged (3000 rpm, 2 min) to determine the free calycosin concentration in the supernatant. Also, 500 µL of the calycosin-loaded nanoliposomes were added by 1500 μL of methanol, vortexed ([…]), sonicated (5 min), centrifuged (3000 rpm, 2 min) to calculate the total calycosin concentration (C0). 20 mL of the prepared calycosin-loaded nanoliposomes powder (V0) was weighted to calculate the solid powder mass (W0). 25 µl of the sample was injected into a HPLC system containing Phenomenex ODS analytical column (150 mm × 4.6 mm, 5 μm) with a guard column (30 mm × 10 mm, 3 μm) at 40 °C. The mobile phase was a mixture of methanol: double distilled water as follows:0.05 M KH2PO4 = 40:60:5, pH 4.0, with a flow rate of 1.0 ml/min [37]. The simulated gastric fluid was 0.1 mol/L HCl (100 mM, pH 1.2) supplemented with 0.5% Tween-80, the simulated intestinal fluid was PBS buffer (25 mM, pH 6.9) containing 0.5% Tween-80, and the simulated physiological buffer was PBS (150 mM, pH 7.4) containing 0.5% Tween-80. The cumulative drug release was then determined using the following equation [35]: Cumulative release rate%=[V1×(C1⋯+Ci1)+V2×Ci]/Vo×Co×100 where, V1 is the sampling amount, V2 is the volume of the dialysis medium, C1–Ci is the concentration of calycosin at each time point, and V0 and C0 are the volume and concentration of calycosin-loaded nanoliposomes added to the dialysis bag. Stability of calycosin-loaded nanoliposomes was explored for about two months at 37 °C by using particle size and encapsulation efficiency of the reconstituted nanoliposome.

[2] = Dissolution study in PBS pH 7.4; type: physicochemical
Experimental: The dissolution studies were performed based on the previous study. Briefly, the dissolution medium (pH 7.4, PBS, 900 ml) under stirring (100 rpm) was added by calycosin-loaded nanoliposomes which is equivalent to 50 mg of drug and at different time intervals, 15 mL samples were removed, replaced, filtrated ([…]), and dissolved in mixed solvent (methanol: distilled water = 5.5:3.5, v/v). Finally, 25 µl of the sample was injected into a HPLC system. The rest of the setup was similar to the above-mentioned explanations.

[3] = Pharmacokinetics in rats after oral administration; type: in vivo; conditions: male, Sprague-Dawley, rat, single dose 30 mg/kg calycosin, plasma
Experimental: […] male Sprague–Dawley rats were randomly divided into three groups ([…]) as control, treated with calycosin, and treated with calycosin-loaded nanoliposomes (dissolved in 1% ethanol). The doses of calycoin groups were 30 mg/kg for oral administration. After the rats were intragastrically administered with free or Nano-formulated calycosin, the 0.5 mL blood was taken from the fundus venous plexus of each rat at different time intervals. The blood samples were then centrifuged (4000 rpm, 10 min), and the plasma was removed and to stored − 80 °C. The content of the drug in the plasma sample was then calculated by the established LC-MS/MS method based on the previous report.

[4] = test system: mitochondria in kidney cells of diabetic rats; assay: MTT assay of mitochondrial viability in diabetic rats; type: in vivo, Sprague–Dawley rats; conditions: streptozotocin diabetic rats, treated 4 weeks
Experimental: (§1) Diabetes was induced in mice by injecting streptozotocin purchased from Sigma (USA). Streptozotocin was dissolved in a citrate buffer (pH 6.5, 0.1 M) and injected at a dose of 65 mg/kg intraperitoneally. Blood glucose was measured before the test and one week after streptozotocin injection, and mice with blood glucose above […] were considered diabetic. The calycosin or calycosin-loaded nanoliposomes were dissolved in PBS until it was ready to be injected, and the mice received […] of calycosin-loaded nanoliposomes for 4 weeks after becoming diabetic. Vitamin E (100 mg/kg) was also used as a positive control group. Animals were randomly divided in 5 groups which each group consisted of 6 male mice. […] Protein concentration was measured as standard using bovine serum albumin (BSA). […] 100 µl of mitochondrial supernatants were mixed by MTT stock solution (5 mg mL^−1) for 4 h, followed by removing the supernatants, addition of 150 μL DMSO for 5 min, and reading the absorbance of the samples at 570 nm using a microplate reader (BIO-RAD microplate reader-550).

[5] = test system: mitochondria in kidney cells of diabetic rats; assay: ROS measurement by DCFH-DA assay in diabetic rats; type: in vivo, Sprague–Dawley rats; conditions: streptozotocin diabetic rats, treated 4 weeks
Experimental: as §1, with “Then,” for “100 µl of mitochondrial supernatants were mixed by MTT stock solution (5 mg mL^−1) for 4 h, followed by removing”, “fluorescence intensity” for “supernatants, addition of 150 μL DMSO for 5 min, and reading the absorbance”, “samples was read” for “samples”, “λex/λem of 485 nm/530” for “570”, “spectrofluorometer (CLARIOstar, Offenburg, Germany).” for “microplate reader (BIO-RAD microplate reader-550).”

[6] = test system: mitochondria in kidney cells of diabetic rats; assay: Lipid peroxidation (MDA) by TBARS analysis in diabetic rats; type: in vivo, Sprague–Dawley rats; conditions: streptozotocin diabetic rats, treated 4 weeks

For `COc1ccc(-c2coc3cc(O)ccc3c2=O)cc1O` [calycosin], the “time of (almost) complete / 100% release” value ([1]; simulated gastric medium pH 1.2) was roughly 20 h, the cumulative release ([1]; simulated gastric medium pH 1.2, 1 h) was “about 32%” and the “time of (almost) complete / 100% release” value ([1]; simulated intestinal fluid pH 6.9) was roughly 100 h. For the same molecule, the cumulative release ([1]; simulated intestinal fluid pH 6.9, 1 h) was “about 32%”, the cumulative release ([1]; simulated intestinal fluid pH 6.9, 20 h) was 90% and the “time of (almost) complete / 100% release” value ([1]; simulated physiological fluid pH 7.4) was roughly 120 h. For the same molecule, the cumulative release ([1]; simulated physiological fluid pH 7.4, 1 h) was “about 7%”, the cumulative release ([1]; simulated physiological fluid pH 7.4, 20 h) was 55% and the dissolution rate [2] was “low”. The AUC(0-inf) [3] was 421 ± 73.3 ng·h/mL, the AUC(0-t) [3] was 409 ± 67.3 ng·h/mL and the Cmax [3] was 298 ± 35.8 ng/mL. The Tmax [3] was 0.19 ± 0.017 h, the half-life [3] was 6.98 ± 0.96 h and the MRT last ([3]; read-out: MRT0−t) was 8.68 ± 1.27 h. For the same molecule, the “mitochondrial viability (MTT) in comparison with diabetic rats” value [4] was “significant recovery of mitochondrial viability”, the “generation of ROS (DCF fluorescence intensity)” value [5] was “potentially reduced the generation of ROS” and the “MDA level (lipid peroxidation)” value [6] was “remarkable decrease in lipid peroxidation”.
